Molecules are shown by their SMILES.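 These data come from cells grown in 96-well plates and exposed to compound for 48 hours at five concentrations. At the GI50, growth is halved. At the TGI there is no net growth.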 Bounds are passed on as bounds.

The assay has as its system MDA-MB-468 breast. Put plainly: NCI tumour cell line growth inhibition, 48 h.
In the case of `Cc1ccc(C2CC(c3ccc(Nc4nc(NCCO)nc(Nc5ccc(Cl)cc5)n4)cc3)=Nc3c(N)nc(N)nc3N2)cc1` (configuration not stated), the GI50 was 1.65 µM and the TGI was 3.17 µM.

`Cc1cc(C)cc(Nc2ccc([N+](=O)[O-])c(NCCN3CCOCC3)n2)c1`: the GI50 was 0.000419 µM.

In the case of `Cc1ccc2c(c1)O/C(=C\c1ccc([N+](=O)[O-])o1)C2=O`, the GI50 was 1.56 µM and the TGI was 3.5 µM.

As for `Cc1nc2cc(Nc3nc(Nc4ccc(F)cc4)nc(N4CCN(C)CC4)n3)ccc2n1Cc1ccccc1`, the GI50 is 1.43 µM and the TGI worked out at 3.44 µM.

In the case of `Cc1cccc2c1O/C(=C\c1ccc([N+](=O)[O-])o1)C2=O`, the GI50 is 1.29 µM and the TGI is 2.99 µM.

On to `CCOC(=O)N[C@H]1CCc2c(Br)c(OC)c(OC)c(OC)c2-c2ccc(SC)c(=O)cc21`, for which the GI50 is < 0.01 µM and the TGI worked out at 16.8 µM.

Turning to `Nc1ccc2ccc(NS(=O)(=O)N3CCCCC3)cc2c1`, the GI50 was 0.194 µM and the TGI is > 100 µM.

Turning to `C[C@@H](Oc1ccc2[nH]nc(/C=C/c3cnn(CCO)c3)c2c1)c1c(Cl)cncc1Cl`, the GI50 was 1.37 µM and the TGI came out at 3.11 µM.

On to `C#Cc1cccc(Oc2ccc(NC(=O)CCl)cc2)c1`, for which the GI50 is 77.9 µM and the TGI was > 82.5 µM.

With `COc1ccc2c(c1)cn1c3ccc(O)cc3[nH]c(=O)c21`, the GI50 is 0.236 µM and the TGI is 1.09 µM.

As for `O=C1C(=O)c2ccccc2C(O)=C1CC=C(Cl)Cl`, the GI50 is 15.8 µM and the TGI amounted to 59 µM.

`COc1ccc(/C=C/C(=O)c2cc3c(N)c(C(=O)Nc4ccccc4C)sc3nc2C)cc1`: the GI50 is 0.167 µM and the TGI was > 50 µM.

As for `O=C(Nc1ccccc1O)c1ccc(CNC(=O)c2sccc2Nc2ccnc(C(F)(F)F)c2)cc1`, the GI50 was 2.01 µM and the TGI was 5.9 µM.

For the compound `CN(C)CCCOc1c2ccccc2nc2c1oc1ccc(Cl)cc12`, the GI50 is 2.95 µM and the TGI came to 8.8 µM.

On to `CCCCCCCCCCCCCC(=O)C(C)N` (configuration not stated), for which the GI50 was 3.31 µM and the TGI was determined as 9.51 µM.

As for `C1=C(c2ccccc2)C(c2ccc(OCCN3CCCCC3)cc2)Oc2ccccc21` (configuration not stated), the GI50 was 1.54 µM and the TGI was determined as 3 µM.

With `COc1cc(NCc2ccccc2O)c2ncccc2c1`, the GI50 was 15.4 µM and the TGI came out at 50.4 µM.

As to `NC(=S)N/N=C\c1nccc2c(N)cccc12`, the GI50 is 0.226 µM and the TGI was determined as 0.717 µM.

As for `C/C1=C/C(=O)O[C@@H]2C[C@@H](CC[C@H](C)/C=C\C=C\CC1)O[C@@](OCCc1ccccc1)([C@@H]1CSC(=O)N1)C2`, the GI50 was 0.0292 µM and the TGI was found to be 0.135 µM.

In the case of `COc1ccc(-c2nnc(N3CCN(C(=O)CN4CCN(c5ccc(Cl)cc5)CC4)CC3)nc2-c2ccc(OC)cc2)cc1`, the GI50 was 17.9 µM and the TGI was determined as 48.3 µM.

For `CCO/C=N/C1=C(C#N)C(c2ccc(F)cc2)c2sc3c(C)cccc3c2O1` (configuration not stated), the GI50 was 0.504 µM and the TGI was determined as 17.1 µM.

As for `COc1cc(C2=NN(c3ccc(S(N)(=O)=O)cc3)C(c3ccc(Cl)cc3)C2)cc(OC)c1OC` (configuration not stated), the GI50 was 2.88 µM and the TGI was > 100 µM.

Turning to `CCN(CC)CCOc1ccc2c(c1)C(=O)c1cc(OCCN(CC)CC)ccc1-2`, the GI50 was 2.64 µM and the TGI stood at 8.53 µM.

For the compound `CS(=O)(=O)CCn1c(=O)c(Oc2ccc(F)cc2F)cc2cnc(NC3CCOCC3)nc21`, the GI50 is > 25 µM and the TGI is > 25 µM.

For the compound `CC(CN1CCN(CC(C)Nc2ccnc3cc(Cl)ccc23)CC1)Nc1ccnc2cc(Cl)ccc12` (configuration not stated), the GI50 was 2.97 µM and the TGI is 9.55 µM.

As to `O=S(=O)(NCCNc1cc(-c2cn(-c3ccccc3)nc2-c2cccc(O)c2)ccn1)c1ccc(Cl)cc1`, the GI50 is 2.78 µM and the TGI came out at 7.66 µM.

In the case of `CN1CCN(c2ccc(NC3=C(Cl)C(=O)c4ncccc4C3=O)cc2C#N)CC1`, the GI50 is 0.414 µM and the TGI amounted to 1.9 µM.

Take `Cc1cc(C)n(C(=O)c2nn(-c3ccc(Cl)cc3)cc2O)n1`: the GI50 is 8.9 µM and the TGI is > 100 µM.

As to `COc1cc(-c2cc(/C=C3\C(=O)Nc4ccccc43)[nH]n2)cc(OC)c1OC`, the GI50 was 2.88 µM and the TGI came out at 13.4 µM.

`CCCCCCNc1nc(N2CCOCC2)c2[nH]c(NCCCCCC)nc2n1`: the GI50 is 1.38 µM and the TGI turned out to be 2.7 µM.

As for `Oc1c(I)cc(-c2nc3ccccc3s2)cc1CN(Cc1ccccn1)Cc1ccccn1`, the GI50 is 0.531 µM and the TGI is 5.25 µM.

On to `C(=C\c1nccc2c1[nH]c1ccccc12)/c1ccccc1`, for which the GI50 is 2.04 µM and the TGI worked out at 7.91 µM.

In the case of `CC(C)(C)OC(=O)CN1CCc2c(sc3ncnc(N/N=C/c4cccc5ccccc45)c23)C1`, the GI50 was 3.9 µM and the TGI worked out at 16.3 µM.

For `Cc1cc2c(-c3ccc(NC(=O)[C@H](N)CC(C)(C)C)cc3C)ccnc2[nH]1`, the GI50 is 2.73 µM and the TGI turned out to be 10.6 µM.

On to `COc1ccc(CC(NC(=O)[C@H](C)NC(=O)CN2CCOCC2)C(=O)N[C@@H](Cc2ccccc2)C(=O)[C@@]2(C)CO2)cc1` (some centres not stated), for which the GI50 is 0.174 µM and the TGI stood at 0.595 µM.

For `[C-]#[N+][C@]12C(=O)[C@H](CCC1(C)C)C(C)(C)[C@H]1C(=O)N(C)c3cccc2c31`, the GI50 was 4.02 µM and the TGI was > 100 µM.

Take `O=C(CNc1ncco1)Nc1ccc(S(=O)(=O)c2ccc(NC(=O)CNc3ncco3)cc2)cc1`: the GI50 is 1.44 µM and the TGI amounted to 3.16 µM.

For the compound `O=C(O)c1cc(Cc2ccc(O)c(C(=O)O)c2)ccc1O` (tested in a mixture with another compound), the GI50 is 2.57 µM and the TGI worked out at 14.4 µM.

For the compound `CNC(=O)OC1C(O[C@H]2C[C@H]3[C@@H]4CC=C5C[C@@H](O)CC[C@]5(C)[C@H]4CC[C@]3(C)[C@H]2[C@H](C)C(=O)CCC(C)C)OCC(O)C1OC1OCC(O)C(O)C1OC(=O)c1ccc(OC)cc1` (some centres not stated), the GI50 is 0.027 µM and the TGI is 2.96 µM.

The values are drawn from PubChem BioAssay (NCI).
